# Assay results published in article PMC11513893, “Discovery of Oral Degraders of the ROS1 Fusion Protein with Potent Activity against Secondary Resistance Mutations” (Journal of Medicinal Chemistry, 2024).
# Read-outs that look alike come from different tables or passages of the source.
# Legend:
# [1] = system: Ba/F3 CD74-ROS1 non mutant; experiment: Antiproliferation assay (Alamar Blue, 72 h); assay type: cell-based, mouse; details: Mus musculus, cell growth inhibition
# [2] = system: Ba/F3 ROS1-G2032R; experiment: Antiproliferation assay; assay type: cell-based, mouse; details: Mus musculus, BaF3; Ba/F3 cells, cell growth inhibition, 72 h
# [3] = system: ROS1; experiment: ROS1 degradation in Ba/F3 cells (WES immunoblotting); assay type: cell-based; details: for DC50: concentration needed to reduce ROS1 protein by 50%, Ba/F3 cells; for Dmax (%) (ROS1): maximal degradation of ROS1 in Ba/F3 cells
# In short: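 ROS1 and phospho-ROS1 (Tyr2274/2334) in Ba/F3 lysates quantified by capillary immunoassay (WES) with chemiluminescent detection, duplicate experiments. Levels expressed as AUC of the chemiluminescence peak.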
# [4] = Log P measurement; assay type: physicochemical
# Text: An important physicochemical property for a PROTAC molecule is its lipophilicity that largely dictates its pharmaceutical performance such as absorption, permeability, and distribution.
# [5] = Metabolic stability in rat microsomes; assay type: in vitro ADME; details: rat, pooled rat microsomes, pH 7.4, 250 nM compound, NADPH, 37 °C; for half-life at 1 h, 0.25 µM: read-out: metabolic stability in rat microsomes T1/2
# Method: (§1) Pooled human and rat microsomes were prepared and stored at −80 °C prior to use. A master-mix containing microsome, phosphate buffer, and test compound (9 series) solution was made as follows: (1) 3 μL of microsome (20 mg/mL) was diluted with mixed 30 μL of potassium phosphate buffer (pH 7.4; 10×) and 246 μL of water; (2) 3 μL of 25 μM drug solution was added to the microsome; (3) the master solution was prewarmed at 37 °C for 5 min. NADPH solution A (15 μL) and NADPH solution B (3 μL) from Promega were added to the above-mentioned master solution to initiate the reaction. The final concentration of 9 compounds in the reaction system was 250 nM. An aliquot of 20 μL was pipetted from the reaction solution and stopped by the addition of 180 μL of cold MeCN containing 25 ng of Tamoxifen-(N,N-dimethyl-13C2)-15N as an internal standard at the designated time points (0, 5, 15, 30, 45, and 60 min). The incubation solution was vortexed-mixed (800 rpm/10 min) and centrifuged at 3500 rpm for 10 min to precipitate proteins. The supernatant was collected and used for the LC/MS/MS analysis. The natural log of the remaining percentage of the test compound was plotted against time and the gradient of the line was determined.
# [6] = Metabolic stability in human microsomes; assay type: in vitro ADME; details: human, pooled human microsomes, pH 7.4, 250 nM compound, NADPH, 37 °C; for half-life at 1 h, 0.25 µM: read-out: metabolic stability in human microsomes T1/2
# Method: as §1
# [7] = Pharmacokinetics study in Sprague–Dawley rats; assay type: in vivo; details: rat
# Method: Four to 6 weeks old Sprague–Dawley rats [Crl: CD (SD)] (SPF/VAF) were purchased from Charles River (Wilmington MA). Animals were quarantined/acclimated for 2–6 weeks prior to dose initiation. Sprague–Dawley rats were given oral administration of test compounds (20% PG, 5% Solutol, and 75% of 20% HP-β-CD in water) at different dose levels. After treatment with the compounds, whole blood was collected from each study animal by puncture of the tail vein (0.4 mL of whole blood from rats) into tubes containing K2EDTA at each time point. The plasma samples were divided into 2 aliquots (approximately equal in volume) and stored frozen at −75 ± 15 °C within 2 h of the collection until analysis.
# The stock solution of the test compound (0.01 M) in DMSO was prepared and stored at −20 ± 5 °C. The desired serial concentrations of working reference analyte solutions were achieved by diluting a stock analyte solution with 50% acetonitrile (0.1% formic acid) in water solution. The bioanalytical LC–MS/MS method was developed for quantitative determination of each test compound in Sprague–Dawley rat plasma with acceptable selectivity, sensitivity, calibration curve, precision, and accuracy. The analytical method is applicable for the determination of test compounds in Sprague–Dawley rat plasma with a lower limit of quantification of 10.0 ng/mL and an upper limit of quantification of 5000 ng/mL. Five microliters of diluted supernatant was injected into the LC–MS/MS system (TSQ Quantis) and a SynergiTM 4 μm Fusion-RP 80 Å (50 × 2 mm) column using gradient elution and a Triple Quad mass spectrometer) for quantitative analysis. The mobile phases used were 0.1% formic acid in deionized water and 0.1% formic acid in acetonitrile. The pharmacokinetic parameters T1/2 (the biological half-life), Cmax (maximal concentration), Tmax (time at which Cmax is observed), and AUC (area under the plasma concentration–time curve) were calculated from the plasma concentration versus time data using WinNonlin (PhoenixTM, version 8.1, Mountain View, CA, USA).
# [8] = Pharmacokinetics study in Sprague–Dawley rats; assay type: in vivo; details: rat; remark: listed apart in the source
# [9] = system: Ba/F3 ROS1 D2033N; experiment: Antiproliferation assay; assay type: cell-based; details: Mus musculus, BaF3; Ba/F3 cells, cell growth inhibition
# Text: (§2) To assess targeted degradation of ROS1 fusion proteins, we first established a mouse pro-B cell line Ba/F3 as a model expressing the CD74-ROS1 oncogene or CD74-ROS1 with clinically observed secondary/tertiary mutations. The Ba/F3 cell line is dependent on interleukin-3 for survival and proliferation. Upon transduction of oncogenic ROS1, Ba/F3 cells become independent of interleukin-3 but dependent on the transduced driver gene.
# (§3) Ba/F3 immortalized murine bone marrow–derived pro-B cells were obtained from Creative Biogene (Shirley, NY) and cultured in RPMI supplemented with 10% FBS and IL3 (0.5 ng/mL). Ba/F3 cells expressing ROS1 variants were maintained in RPMI supplemented with 10% FBS and puromycin (0.7 mg/mL). […] Each compound was dissolved in DMSO and serially diluted in RPMI for cell culture experiments.
# (§4) To assess the 72 h effect of drug treatment on cell proliferation, 2000 to 3000 cells were plated in replicates of three in 96-well plates. The plates were placed in an incubator at 37 °C, 5% CO2 for 72 h. Following drug treatments, the cells were incubated with the Alamar Blue Assay reagent (BioRad), 5 μL each well for 4 h at 37 °C and 5% CO2. Luminescence was measured on a multiplate reader and analyzed. […] IC50 values were determined using a nonlinear regression model with a sigmoidal dose response in GraphPad. The data were collected based on triplicate experiments, and presented as mean ± SD.
# (§5) The resulting virus was used to infect Ba/F3 cells. After retroviral infection, Ba/F3 cells were selected by incubation with puromycin (0.7 mg/mL) for 2 weeks. For Ba/F3 cells infected by the CD74–ROS1 variants, IL3 was withdrawn from the culture medium at least 2 weeks before the experiments.
# [10] = system: Ba/F3 ROS1 G2032R-F2075V; experiment: Antiproliferation assay; assay type: cell-based; details: Mus musculus, BaF3; Ba/F3 cells, cell growth inhibition
# Text: as §2, §3, §4, §5
# [11] = system: Ba/F3 ROS1 L2026M; experiment: Antiproliferation assay; assay type: cell-based; details: Mus musculus, BaF3; Ba/F3 cells, cell growth inhibition
# Text: as §2, §3, §4, §5
# [12] = system: Ba/F3 ROS1 L2086F; experiment: Antiproliferation assay; assay type: cell-based; details: Mus musculus, BaF3; Ba/F3 cells, cell growth inhibition
# Text: as §2, with “gene. The Ba/F3 models have been effectively employed in the discovery and preclinical development of next generation ROS1 inhibitors.[11],[14],[15] We have tested ROS1 inhibitors against these Ba/F3 cells to validate their sensitivity and resistance to ROS1 inhibition.” for “gene.”
# Ba/F3 immortalized murine bone marrow–derived pro-B cells were obtained from Creative Biogene (Shirley, NY) and cultured in RPMI supplemented with 10% FBS and IL3 (0.5 ng/mL). Ba/F3 cells expressing ROS1 variants were maintained in RPMI supplemented with 10% FBS and puromycin (0.7 mg/mL). Crizotinib, ceritinib, brigatinib, repotrectinib, and lorlatinib were purchased from MedChem Express. Each compound was dissolved in DMSO and serially diluted in RPMI for cell culture experiments.
# as §4
# as §5, with “cDNA encoding CD74-ROS1 or mutant CD74–ROS1 was cloned into retroviral expression vectors (pLenti), and viruses were generated in HEK293T cells by transfecting with packaging plasmids. The” for “The”
# [13] = Sprague-Dawley [Crl: CD (SD)], plasma, 10 mg/kg po
# [14] = Sprague-Dawley [Crl: CD (SD)], plasma, 10 mg/kg po, read-out: AUC (po)
# [15] = Sprague-Dawley [Crl: CD (SD)], plasma, 10 mg/kg po, read-out: Tmax
SMILES,"IC50 ([1]; BaF3, 72 h, Ba/F3 cells) [nM]",IC50 [2] [nM],DC50 [3] [nM],logP [4],"microsomal CLint at 1 h, 0.25 µM [5] [µL/min/mg]","half-life at 1 h, 0.25 µM [5] [h]","microsomal CLint at 1 h, 0.25 µM [6] [µL/min/mg]","half-life at 1 h, 0.25 µM [6] [h]","Cmax at 24 h [7, 13] [ng/mL]","half-life [7, 13] [h]","AUC [7, 14] [ng·h/mL]","Tmax [7, 15] [h]",Dmax (%) (ROS1) [3],other results
"COc1cc(N2CCN(CC3CN(c4ccc5c(c4)CN(C4CCC(=O)NC4=O)C5=O)C3)CC2)ccc1Nc1ncc(Cl)c(Nc2ccccc2P(C)(C)=O)n1 (stereo not shown) [9m, 3-(5-(3-((4-(4-((5-Chloro-4-((2-(dimethylphosphoryl)phenyl)amino)pyrimidin-2-yl)amino)-3-methoxyphenyl)piperazin-1-yl)methyl)azetidin-1-yl)-1-oxoisoindolin-2-yl)piperidine-2,6-dione]",8 ± 0.9,120 ± 27,9,3.07,9.6,2.41,94.5,0.615,–,–,–,–,94,"Cmax at 24 h ([7]; Sprague-Dawley [Crl: CD (SD)], plasma, 5 mg/kg po): 145 ng/mL; bioavailability ([7]; Sprague-Dawley [Crl: CD (SD)], plasma, 5 mg/kg po vs 0.5 mg/kg iv): 4.8%; AUC (po) ([7]; 5 mg/kg po): 1032 ng·h/mL; T1/2 ([7]; 5 mg/kg po): 8.88 h; Tmax ([7]; 5 mg/kg po): 1 h; AUC (iv) ([8]; 0.5 mg/kg iv): 2151 ng·h/mL"
CN1CCN(c2ccc(C(=O)Nc3n[nH]c4ccc(Cc5cc(F)cc(F)c5)cc34)c(NC3CCOCC3)c2)CC1 [entrectinib],–,980 ± 77,–,–,–,–,–,–,–,–,–,–,–,"IC50 ([1]; BaF3, Ba/F3 cells): 2.4 ± 0.4 nM; IC50 [9]: 132 ± 15 nM; IC50 [10]: > 2000 nM; IC50 [11]: 56 ± 7 nM; IC50 [12]: 506 ± 97 nM"
"Cc1cc(Nc2ncc(Cl)c(Nc3ccccc3S(=O)(=O)C(C)C)n2)c(OC(C)C)cc1C1CCN(C2CCN(c3cccc4c3C(=O)N(C3CCC(=O)NC3=O)C4=O)CC2)CC1 (stereo not shown) [8c, 4-(4-(4-((5-Chloro-4-((2-(isopropylsulfonyl)phenyl)amino)pyrimidin-2-yl)amino)-5-isopropoxy-2-methylphenyl)-[1,4′-bipiperidin]-1′-yl)-2-(2,6-dioxopiperidin-3-yl)isoindoline-1,3-dione]",107 ± 16,1260 ± 93,143,–,–,–,–,–,–,–,–,–,82,–

# More lines, main results first:
"IC50 ([1]; BaF3, 72 h, Ba/F3 cells) [nM]",IC50 [2] [nM],DC50 [3] [nM],logP [4],"microsomal CLint at 1 h, 0.25 µM [5] [µL/min/mg]","half-life at 1 h, 0.25 µM [5] [h]","microsomal CLint at 1 h, 0.25 µM [6] [µL/min/mg]","half-life at 1 h, 0.25 µM [6] [h]","Cmax at 24 h [7, 13] [ng/mL]","half-life [7, 13] [h]","AUC [7, 14] [ng·h/mL]","Tmax [7, 15] [h]",SMILES,Dmax (%) (ROS1) [3],other results
3.8 ± 0.2,80 ± 27,5.1,2.5,12.8,1.8,57,1.01,3240,7.7,25400,2,"COc1cc(N2CCC(N3CCN(CC4CN(c5ccc6c(c5)C(=O)N(C5CCC(=O)NC5=O)C6=O)C4)CC3)CC2)ccc1Nc1ncc(Cl)c(Nc2ccccc2P(C)(C)=O)n1 (stereo not shown) [9e, 5-(3-((4-(1-(4-((5-Chloro-4-((2-(dimethylphosphoryl)phenyl)amino)pyrimidin-2-yl)amino)-3-methoxyphenyl)piperidin-4-yl)piperazin-1-yl)methyl)azetidin-1-yl)-2-(2,6-dioxopiperidin-3-yl)isoindoline-1,3-dione]",97,"bioavailability ([7]; Sprague-Dawley [Crl: CD (SD)], plasma, 10 mg/kg po vs 1 mg/kg iv): 12.2%; AUC (iv) ([8]; 1 mg/kg iv): 20,850 h·ng/mL"
19 ± 8,236 ± 28,22,2.35,77,0.3,87,0.663,2340,6.81,31700,3,"COc1cc(N2CCN(CC3CCN(c4ccc5c(c4)C(=O)N(C4CCC(=O)NC4=O)C5=O)CC3)CC2)ccc1Nc1ncc(Cl)c(Nc2ccccc2P(C)(C)=O)n1 (stereo not shown) [9c, 5-(4-((4-(4-((5-Chloro-4-((2-(dimethylphosphoryl)phenyl)amino)pyrimidin-2-yl)amino)-3-methoxyphenyl)piperazin-1-yl)methyl)piperidin-1-yl)-2-(2,6-dioxopiperidin-3-yl)isoindoline-1,3-dione]",95,"AUC ([7]; Sprague-Dawley [Crl: CD (SD)], plasma, 2 mg/kg iv, read-out: AUC (iv)): 29400 ng·h/mL; bioavailability ([7]; Sprague-Dawley [Crl: CD (SD)], plasma, 10 mg/kg po vs 2 mg/kg iv): 21.6%"
